Results reported in patent publication US20060211887A1, “Phosphate salts of 6-dimethylaminomethyl-1-(3-methoxyphenyl)-1,3-dihydroxy-cyclohexane compounds” (priority 2005, published 2006).
Entries after “also recorded” stand apart in the source; their conditions may differ.

Experiment: Storage at defined relative atmospheric humidity (approx. 75% or 95%, then approx. 4%) with thermogravimetric analysis, weighing and X-ray powder diffractometry
Type: physicochemical
Conditions: for % pt (middle) / % pt after / % pt during: vs before storage; for Form middle / Form after / Form during: X-ray powder diffractometry; for Laboratory after: storage step approx. 4 (±5) % r.h. approx. 20 h; for Laboratory during %: storage step approx. 75 (±5) % r.h. approx. 7 days; for Laboratory during: storage step approx. 95 (±5) % r.h. approx. 7 days
Text: Storage of the hydrochloride salts, which are not according to the invention (identified H1 to H3 in the following examples of compounds; for the synthesis see the subsequent experimental part), at room temperature over saturated sodium chloride solution results in a relative atmospheric humidity of approx. 75% (±5%). Storage of the samples at room temperature over saturated potassium sulfate solution results in a relative atmospheric humidity of approx. 95% (±5%).
Storage of the samples at room temperature over drying beads (blau+, Engelhardt, Nienburg) results in a relative atmospheric humidity of approx. 4% (±5%).
The samples were stored at approx. 75% relative atmospheric humidity for approx. 8.5 days. The samples were then stored at a relative atmospheric humidity of approx. 4% for a further approx. 6 h.
They were analyzed for their loss in weight by means of thermogravimetric analyses (amount of sample approx. 5-20 mg, heating rate approx. 10 K/min, heating range from approx. 25° C. to approx. 240° C.).
The approximate difference in the moisture content (in percentage points; % pt) from after the storage to before the particular storage step is stated.
In addition, the percentage change in the total weight of the sample occurring in the respective storage step was determined by weighing (“laboratory”).
The crystalline form was determined by means of X-ray powder diffractometry.
The samples were stored at approx. 95% relative atmospheric humidity for approx. 8.5 days. The samples were then stored at a relative atmospheric humidity of approx. 4% for a further approx. 6 h.
The approximate difference in the moisture content (in percentage points; % pt) from after the storage to before the storage is stated.
The samples were stored at approx. 75% relative atmospheric humidity for approx. 7 days. The samples were then stored at a relative atmospheric humidity of approx. 4% for a further approx. 2.5 days.
The approximate difference in the moisture content (in percentage points; % pt) from after the storage step to before the storage is stated.
The samples were stored at approx. 95% relative atmospheric humidity for approx. 7 days. The samples were then stored at a relative atmospheric humidity of approx. 4% for a further approx. 7 days.
Storage of the phosphate salts I-P according to the invention, called samples in the following, at room temperature over saturated sodium chloride solution results in a relative atmospheric humidity of approx. 75 (±5) % . Storage of the samples at room temperature over saturated potassium sulfate solution results in a relative atmospheric humidity of approx. 95 (±5) %.
Storage of the samples at room temperature over drying beads (blau+, Engelhardt, Nienburg) results in a relative atmospheric humidity of approx. 4 (±5) %.
The samples were stored at approx. 75 (±5) % relative atmospheric humidity for approx. 8.5 days. The samples were then stored at a relative atmospheric humidity of approx. 4 (±5) % for a further approx. 6 h.
The samples were stored at approx. 95 (±5) % relative atmospheric humidity for approx. 8.5 days. The samples were then stored at a relative atmospheric humidity of approx. 4 (±5) % for a further approx. 6 h.
The samples were stored at approx. 75 (±5) % relative atmospheric humidity for approx. 7 days. The samples were then stored at a relative atmospheric humidity of approx. 4 (±5) % for a further approx. 20 h.
The samples were stored at approx. 95 (±5) % relative atmospheric humidity for approx. 7 days. The samples were then stored at a relative atmospheric humidity of approx. 4 (±5) % for a further approx. 20 h.
Sample P3 was kept in the laboratory for approx. 55 minutes under ambient conditions before the second storage step.
The interpretation of the specified data is explained again in more detail by the example of the data for P1 given in the preceding Table 8:
Storage of 1: • first storage step: 95% atmospheric humidity • second storage step: 4% atmospheric humidity […]

[1] = after approx. 75% r.h. approx. 7 days
[2] = after approx. 95% r.h. approx. 7 days
[3] = approx. 75% r.h. approx. 7 days, then approx. 4% approx. 2.5 days
[4] = approx. 75% r.h. approx. 8.5 days, then approx. 4% approx. 6 h
[5] = approx. 95% r.h. approx. 7 days, then approx. 4% approx. 7 days
[6] = approx. 95% r.h. approx. 8.5 days, then approx. 4% approx. 6 h
[7] = storage step approx. 4% r.h. approx. 2.5 days, after 75% r.h. 7 days
[8] = storage step approx. 4% r.h. approx. 7 days, after 95% r.h. 7 days
[9] = storage step approx. 75% r.h. approx. 7 days
[10] = storage step approx. 95% r.h. approx. 7 days
[11] = after approx. 75 (±5) % r.h. approx. 7 days
[12] = after approx. 95 (±5) % r.h. approx. 7 days
[13] = approx. 75 (±5) % r.h. approx. 7 days, then approx. 4 (±5) % approx. 20 h
[14] = approx. 75 (±5) % r.h. approx. 8.5 days, then approx. 4 (±5) % approx. 6 h
[15] = approx. 95 (±5) % r.h. approx. 7 days, then approx. 4 (±5) % approx. 20 h
[16] = approx. 95 (±5) % r.h. approx. 8.5 days, then approx. 4 (±5) % approx. 6 h

SMILES | % pt (middle) [1] [% pt] | Form middle [1] | % pt (middle) [2] [% pt] | % pt during [11] [% pt] | Form during [11] | % pt during [12] | Form during [12] | % pt after [13] [% pt] | Form after [13] | % pt [14] [% pt] | Laboratory (percentage change in total weight by weighing) [14] | Form after [14] | % pt after [15] | Form after [15] | % pt [16] [% pt] | Laboratory (percentage change in total weight by weighing) [16] | Form after [16] | Laboratory after (after 75% r.h. 7 days) | Laboratory after (after 95% r.h. 7 days) [%] | Laboratory during % | other results
COc1cccc(C2(O)CC(O)CCC2CN(C)C)c1 (centres unmarked) [Sample H1, 6-dimethylaminomethyl-1-(3-methoxyphenyl)-1,3-dihydroxy-cyclohexane] | −2.73 | form A,; also recorded: form B,; also recorded: form C,; also recorded: form D | −4.88 |  |  |  |  |  |  |  |  |  |  |  |  |  |  |  |  |  | Form middle [2]: form B; % pt after [3]: 0.53 % pt; Form after [3]: form B,; also recorded: form A; % pt (difference in the moisture content, thermogravimetry, after vs before storage) [4]: −1.22 % pt; Laboratory/% (percentage change in total weight by weighing) [4]: +1.14%; Form after (approx. 75% relative atmospheric humidity approx. 8.5 days, then approx. 4% approx. 6 h): form B, further; % pt after [5]: −3.84 % pt; Form after [5]: form B; % pt (difference in the moisture content, thermogravimetry) [6]: −4.89 % pt; Laboratory/% (percentage change in total weight by weighing) [6]: +4.99%; Form after [6]: form B, further; Laboratory/% (after) [7]: −1.24%; Laboratory/% (after) [8]: −22.76%; Laboratory/% (middle) [9]: 2.89%; Laboratory/% (middle) [10]: +13.72%
COc1cccc([C@@]2(O)C[C@H](O)CC[C@@H]2CN(C)C)c1 (racemic) [Sample P2, (1RS,3RS,6RS)-6-dimethylaminomethyl-1-(3-methoxyphenyl)-cyclohexane-1,3-diol] |  |  |  | −0.42 | form A | −0.24 % pt | form A | −0.44 | form A | −0.17 | +0.06% | form A | −0.21 % pt | form A | −0.25 | +0.02% | form A | +0.08% | −0.60 | +0.02% | Laboratory during: +0.52%
COc1cccc([C@@]2(O)C[C@H](O)CC[C@@H]2CN(C)C)c1 (racemic) [Sample P1, (1RS,3RS,6RS)-6-dimethylaminomethyl-1-(3-methoxyphenyl)-cyclohexane-1,3-diol] |  |  |  | −0.21 | form A | −0.19 % pt | form A | −0.04 | form A | −0.05 | −0.01% | form A | −0.02 % pt | form A | −0.22 | +0.12% | form A | +0.07% | −0.04 | −0.08% | Weight loss TG (afterwards) (after second storage step at ca. 4% atmospheric humidity): −4.38%; Weight loss TG (intermediate) (after storage at 95% atmospheric humidity approx. 7 days): −4.55%; Weight loss TG (beforehand) (before storage, thermogravimetry approx. 25-240° C.): −4.36%
COc1cccc([C@@]2(O)C[C@H](O)CC[C@@H]2CN(C)C)c1 (racemic) [Sample P3, (1RS,3RS,6RS)-6-dimethylaminomethyl-1-(3-methoxyphenyl)-cyclohexane-1,3-diol] |  |  |  | −0.25 | form A | +0.21 % pt | form A | −0.33 | form A | −0.24 | −0.47% | form A | +0.27 % pt | form A | −0.25 | −0.39% | form A | −0.75% | −0.04 | +0.23% | Laboratory during: 5.33%
COc1cccc(C2(O)CC(O)CCC2CN(C)C)c1 (centres unmarked) [Sample H3, 6-dimethylaminomethyl-1-(3-methoxyphenyl)-1,3-dihydroxy-cyclohexane] | −4.75 | form B | −2.37 |  |  |  |  |  |  |  |  |  |  |  |  |  |  |  |  |  | Form middle [2]: form B; % pt after [3]: 0.46 % pt; Form after [3]: form B; % pt after [5]: −0.49 % pt; Form after [5]: form B; Laboratory/% (after) [7]: +3.68%; Laboratory/% (after) [8]: −9.19%; Laboratory/% (middle) [9]: +0.02%; Laboratory/% (middle) [10]: +4.34%
